Here are results for 19 molecules from patent US8354436B2 (4SC Discovery GmbH, priority 2011, dated 2013).

Common to all, as to type: cell-based
Holding throughout (conditions): 48 hours

One assay has as its system IFN-γ. Put plainly: IFN-γ production by PHA-stimulated human PBMC (OptEIA human IFN-g ELISA). The essentials: (§1)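 Healthy-donor PBMC (1×10^5 cells/well) were activated with 2 μg/ml PHA and cultured with test compounds for 48 hours; cytokines were then quantified in supernatants by the respective immunoassay. Screening used 10, 1, 0.1 and 0.01 μM; IC50 came from semilogarithmic compound titration.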
For orientation: In an ELISA, binding on a coated surface is turned into a signal by an enzyme label.

The subject of the next assay is IL-17FF. Kind of assay: IL-17FF production by PHA-stimulated human PBMC (human IL-17F ELI-Pair). An outline of the steps: as §1
The subject of assay [1] is PBMC from healthy human donors. Kind of assay: T cell proliferation assay (PHA-stimulated human PBMC, BrdU ELISA). The essentials: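 Healthy-donor PBMC isolated on Ficoll, seeded at 1×10⁵ cells/well in RPMI with 10% dialysed FCS, stimulated with 2 μg/ml PHA in presence of test compound. Proliferation read after 48 hours by BrdU-incorporation ELISA.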
Setting [2] is: PHA-stimulated human PBMC, column C, read-out: IC50 (IFNγ).
Where [3] appears, read: PHA-stimulated human PBMC, column B, read-out: IC50 (IL-17FF).
Where [4] appears, read: PHA-stimulated human PBMC, column D, read-out: IC50 (Tcell proliferation).
[5] abbreviates: human PBMC, 2 μg/ml PHA, read-out: C: IC50 (IFNγ).
Where [6] appears, read: human PBMC, 2 μg/ml PHA, read-out: B: IC50 (IL-17FF).
[7] abbreviates: human PBMC, 2 μg/ml PHA, read-out: D: IC50 (Tcell proliferation).

Each structure is given as a SMILES string. Where two headings read alike, the source gives them in different places.

`COC(=O)c1c(-c2ccc(Cl)cc2Cl)noc1-c1cnn(-c2cccc(F)c2)c1C(F)(F)F` [Example I-111, methyl 3-(2,4-dichlorophenyl)-5-(1-(3-fluorophenyl)-5-(trifluoromethyl)-1H-pyrazol-4-yl)isoxazole-4-carboxylate]: the IC50 in the assay with IFN-γ (setting [2]) is 1000 to 10000 nM; with IL-17FF (setting [3]), 1000 to 10000 nM; in assay [1] (setting [4]), 100 to 1000 nM.
For `COC(=O)c1c(-c2c(F)cccc2Cl)noc1-c1cnn(-c2ccccc2F)c1` [Example I-89, Methyl 3-(2-chloro-6-fluorophenyl)-5-[1-(2-fluorophenyl)-1H-pyrazol-4-yl]isoxazole-4-carboxylate], the figures for the IC50 (with IFN-γ (setting [2]); with IL-17FF (setting [3]); in assay [1] (setting [4])) were 100 to 1000 nM, 10 to 100 nM and 100 to 1000 nM, respectively.
As for `COC(=O)c1c(-c2c(F)cccc2Cl)noc1-c1cnn(-c2ccccc2Cl)c1C(F)(F)F` [IB-20, methyl 3-(2-chloro-6-fluorophenyl)-5-(1-(2-chlorophenyl)-5-(trifluoromethyl)-1H-pyrazol-4-yl)isoxazole-4-carboxylate], the IC50 (in the assay on IFN-γ (setting [2]); in the assay on IL-17FF (setting [3]); in assay [1] (setting [4])) was 1000 to 10000 nM throughout.
As for `Fc1cc(F)cc(-n2ncc(-c3onc(-c4c(F)cccc4Cl)c3Br)c2C(F)(F)F)c1` [IB-27, 4-bromo-3-(2-chloro-6-fluorophenyl)-5-(1-(3,5-difluorophenyl)-5-(trifluoromethyl)-1H-pyrazol-4-yl)isoxazole], the IC50 (in the assay on IFN-γ (setting [2]); with IL-17FF (setting [3]); in assay [1] (setting [4])) was 100 to 1000 nM each time.
As to `COC(=O)c1c(-c2c(F)cccc2Cl)noc1-c1cnn(-c2cccc(Cl)c2)c1` [Example I-115, methyl 3-(2-chloro-6-fluorophenyl)-5-(1-(3-chlorophenyl)-1H-pyrazol-4-yl)isoxazole-4-carboxylate], the IC50 (with IFN-γ (setting [2]); in the assay on IL-17FF (setting [3]); in assay [1] (setting [4])) was 1000 to 10000 nM throughout.
For `O=C(c1c(-c2c(F)cccc2Cl)noc1-c1cnn(-c2cccc(Cl)c2)c1C(F)(F)F)N1CCCO1` [Example I-132, (3-(2-chloro-6-fluorophenyl)-5-(1-(3-chlorophenyl)-5-(trifluoromethyl)-1H-pyrazol-4-yl)isoxazol-4-yl)(isoxazolidin-2-yl)methanone], the IC50 with IFN-γ (setting [2]) was below 10 nM; in the assay with IL-17FF (setting [3]), 10 to 100 nM; in assay [1] (setting [4]), 10 to 100 nM.
For the molecule `COC(=O)c1c(-c2c(F)cccc2Cl)noc1-c1cnn(-c2cccc(F)c2)c1` [IB-21, methyl 3-(2-chloro-6-fluorophenyl)-5-(1-(3-fluorophenyl)-1H-pyrazol-4-yl)isoxazole-4-carboxylate], the IC50 (with IFN-γ (setting [2]); in the assay on IL-17FF (setting [3]); in assay [1] (setting [4])) was 100 to 1000 nM in each case.
Consider `Fc1cccc(Cl)c1-c1noc(-c2cnn(-c3ccncc3)c2C(F)(F)F)c1-c1nnco1` [Example B-16, 2-(3-(2-chloro-6-fluorophenyl)-5-(1-(pyridin-4-yl)-5-(trifluoromethyl)-1H-pyrazol-4-yl)isoxazol-4-yl)-1,3,4-oxadiazole], for which the IC50 (in the assay with IFN-γ (setting [5]); in the assay with IL-17FF (setting [6]); in assay [1] (setting [7])) was 100 to 1000 nM each time.
As to `N#Cc1c(-c2c(F)cccc2Cl)noc1-c1cnn(-c2cccc(Cl)c2)c1C(F)(F)F` [Example I-49, 3-(2-chloro-6-fluorophenyl)-5-(1-(3-chlorophenyl)-5-(trifluoromethyl)-1H-pyrazol-4-yl)isoxazole-4-carbonitrile], the IC50 (in the assay with IFN-γ (setting [2]); in the assay on IL-17FF (setting [3]); in assay [1] (setting [4])) was 100 to 1000 nM throughout.
In the case of `Cc1csc(-c2c(-c3c(F)cccc3Cl)noc2-c2cnn(-c3cccc(Cl)c3)c2C(F)(F)F)n1` [Example 4], the IC50 (in the assay with IFN-γ (setting [5]); in the assay with IL-17FF (setting [6]); in assay [1] (setting [7])) was below 10 nM throughout.
As to `CCOC(=O)c1c(-c2c(F)cccc2Cl)noc1-c1cnn(-c2cccc(S(N)(=O)=O)c2)c1C(F)(F)F` [IB-43, ethyl 3-(2-chloro-6-fluorophenyl)-5-(1-(3-sulfamoylphenyl)-5-(trifluoromethyl)-1H-pyrazol-4-yl)-isoxazole-4-carboxylate], the IC50 in the assay with IFN-γ (setting [2]) was in the range of 1000 to 10000 nM; in the assay on IL-17FF (setting [3]), 100 to 1000 nM; in assay [1] (setting [4]), 1000 to 10000 nM.
`O=C(c1c(-c2c(F)cccc2Cl)noc1-c1cnn(-c2cccc(F)c2)c1C(F)(F)F)N1CCOCC1` [Example I-127, (3-(2-chloro-6-fluorophenyl)-5-(1-(3-fluorophenyl)-5-(trifluoromethyl)-1H-pyrazol-4-yl)isoxazol-4-yl)(morpholino)methanone]: the values for the IC50 (in the assay with IFN-γ (setting [2]); in the assay with IL-17FF (setting [3]); in assay [1] (setting [4])) were 100 to 1000 nM, 100 to 1000 nM and 1000 to 10000 nM, respectively.
Take `CCOC(=O)c1c(-c2c(F)cccc2Cl)noc1-c1cnn(-c2cccc(C(N)=O)c2)c1C(F)(F)F` [IB-100, ethyl 5-(1-(3-carbamoylphenyl)-5-(trifluoromethyl)-1H-pyrazol-4-yl)-3-(2-chloro-6-fluorophenyl)isoxazole-4-carboxylate]: the IC50 (in the assay with IFN-γ (setting [2]); with IL-17FF (setting [3]); in assay [1] (setting [4])) was 1000 to 10000 nM in each case.
For the molecule `NS(=O)(=O)c1cccc(-n2ncc(-c3onc(-c4c(F)cccc4Cl)c3-c3nnco3)c2C(F)(F)F)c1` [Example B-17, 3-(4-(3-(2-chloro-6-fluorophenyl)-4-(1,3,4-oxadiazol-2-yl)isoxazol-5-yl)-5-(trifluoromethyl)-1H-pyrazol-1-yl)benzenesulfonamide], the IC50 (in the assay on IFN-γ (setting [5]); in the assay on IL-17FF (setting [6]); in assay [1] (setting [7])) was 1000 to 10000 nM in each case.
Consider `CCOC(=O)c1c(-c2ccncc2F)noc1-c1cnn(-c2ccccc2F)c1C(F)(F)F` [IB-15, ethyl 5-(1-(2-fluorophenyl)-5-(trifluoromethyl)-1H-pyrazol-4-yl)-3-(3-fluoropyridin-4-yl)isoxazole-4-carboxylate], for which the IC50 fell in the range of 100 to 1000 nM in the assay with IFN-γ (setting [2]), 1000 to 10000 nM with IL-17FF (setting [3]) and 100 to 1000 nM in assay [1] (setting [4]).
As to `COC(=O)c1c(-c2ccccc2F)noc1-c1cnn(-c2cccc(F)c2)c1C(F)(F)F` [Example I-92, methyl 3-(2-fluorophenyl)-5-(1-(3-fluorophenyl)-5-(trifluoromethyl)-1H-pyrazol-4-yl)isoxazole-4-carboxylate], the IC50 (with IFN-γ (setting [2]); in the assay on IL-17FF (setting [3]); in assay [1] (setting [4])) was 100 to 1000 nM throughout.
Consider `CCOC(=O)c1c(-c2c(F)cccc2Cl)noc1-c1cnn(-c2ccccn2)c1C(F)(F)F` [IB-84, ethyl 3-(2-chloro-6-fluorophenyl)-5-(1-(pyridin-2-yl)-5-(trifluoromethyl)-1H-pyrazol-4-yl)isoxazole-4-carboxylate], for which the IC50 (in the assay on IFN-γ (setting [2]); in the assay on IL-17FF (setting [3]); in assay [1] (setting [4])) was below 10 nM each time.
As to `COC(=O)c1c(-c2ccccc2Cl)noc1-c1cnn(-c2cccc(Cl)c2)c1C(F)(F)F` [IB-71, methyl 3-(2-chlorophenyl)-5-(1-(3-chlorophenyl)-5-(trifluoromethyl)-1H-pyrazol-4-yl)isoxazole-4-carboxylate], the IC50 (in the assay on IFN-γ (setting [2]); with IL-17FF (setting [3]); in assay [1] (setting [4])) was below 10 nM each time.
In the case of `CC(=O)Nc1c(-c2c(F)cccc2Cl)noc1-c1cnn(-c2cccc(F)c2)c1C(F)(F)F` [Example I-139, N-(3-(2-chloro-6-fluorophenyl)-5-(1-(3-fluorophenyl)-5-(trifluoromethyl)-1H-pyrazol-4-yl)isoxazol-4-yl)acetamide], the IC50 (in the assay on IFN-γ (setting [2]); with IL-17FF (setting [3]); in assay [1] (setting [4])) was 1000 to 10000 nM in each case.
